Consider 10 molecules from patent publication US10775375B2, “Methods for identifying modulators of calcium-sensing receptors” (MARS, INCORPORATED, priority 2014, dated 2020).

This assay has as its target T1, feline calcium-sensing receptor (fCaSR) (Felis catus, UniProt C7FF08, X1044R).
T1 sequence (C7FF08 1-1081 X1044R): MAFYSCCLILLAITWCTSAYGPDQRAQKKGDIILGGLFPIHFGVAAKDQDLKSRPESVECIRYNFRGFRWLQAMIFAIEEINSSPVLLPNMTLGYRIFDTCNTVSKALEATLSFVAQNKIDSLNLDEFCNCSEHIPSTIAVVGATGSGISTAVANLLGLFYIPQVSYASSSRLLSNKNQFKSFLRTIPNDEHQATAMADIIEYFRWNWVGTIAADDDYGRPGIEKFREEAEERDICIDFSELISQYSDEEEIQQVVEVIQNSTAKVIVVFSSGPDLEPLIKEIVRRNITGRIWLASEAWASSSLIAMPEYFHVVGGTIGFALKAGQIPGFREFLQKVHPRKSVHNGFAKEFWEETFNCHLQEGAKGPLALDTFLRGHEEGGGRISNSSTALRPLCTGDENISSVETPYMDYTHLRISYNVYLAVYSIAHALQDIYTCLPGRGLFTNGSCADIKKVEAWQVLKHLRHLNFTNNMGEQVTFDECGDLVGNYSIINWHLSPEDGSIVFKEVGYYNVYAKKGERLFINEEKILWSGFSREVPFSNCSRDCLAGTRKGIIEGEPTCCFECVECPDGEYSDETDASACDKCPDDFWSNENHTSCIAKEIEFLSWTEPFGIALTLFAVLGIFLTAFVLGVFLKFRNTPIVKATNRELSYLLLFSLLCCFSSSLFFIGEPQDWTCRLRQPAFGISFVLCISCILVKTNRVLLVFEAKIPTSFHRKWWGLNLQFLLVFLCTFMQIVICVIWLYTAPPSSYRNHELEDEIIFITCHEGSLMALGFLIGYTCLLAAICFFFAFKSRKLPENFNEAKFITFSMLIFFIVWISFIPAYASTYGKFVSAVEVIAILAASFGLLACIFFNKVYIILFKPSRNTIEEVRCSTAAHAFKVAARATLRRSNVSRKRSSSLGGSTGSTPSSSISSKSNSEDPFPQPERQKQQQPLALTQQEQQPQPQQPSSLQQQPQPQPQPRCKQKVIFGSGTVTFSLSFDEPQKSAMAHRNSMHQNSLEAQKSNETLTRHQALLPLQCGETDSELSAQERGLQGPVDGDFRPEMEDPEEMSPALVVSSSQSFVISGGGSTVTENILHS
Briefly: In vitro cellular luminescence assay for activation of fCaSR (HEK T-Rex/natClytin clone K 5.1, FLIPR Tetra), agonist mode and PAM mode. In kind it is cell-based. The settings on record: for CaSR agonists and PAMs (mode of action on CaSR): classification as agonist, PAM or not active. The source says:
Summary. The full length coding sequence of the calcium-sensing receptor (CaSR, a GPCR (3, C or Glutamate family), naturally coupled to Gαq/11 and Gαi (ligand-directed signaling)) from Felis catus (fCaSR) having the sequence described by SEQ ID NO: 7 was synthesized and sub-cloned into suitable expression vectors. The cat CaSR expression constructs were stably transfected in two mammalian cell lines, the HEK-natClytin and the HEK T-Rex/natClytin, two cell lines that allow for detection of changes in intracellular calcium levels through luminescence. A pure selected clone (K 5.1) was used to analyze 12 CaSR ligands (including calcium as a reference agonist control) in a high-throughput screening (HTS) multi-plate test for agonist and positive allosteric modulator (PAM) effects.
A final pure selected clone (K 5.1) was analyzed in a HTS multi-plate test for agonist or positive allosteric modulator (PAM) effects of 12 CaSR ligands (including calcium as a reference agonist control). 10.000 cw of K 5.1 were seeded on poly-D-lys coated 384 well MTPs in medium containing 1 μg/mL of Doxycycline. Screening with the 12 ligands (including calcium control) was conducted 24 hours later. […] For each ligand that activated CaSR as an agonist or PAM, the EC50 value of the ligand was determined.
Detection of CaSR receptor activation. Transfected cells were analyzed for a response to a reference agonist (calcium) or various CaSR ligands by detecting Ca^2+ sensitive photoprotein luminescence. The experiments were performed in a 384 well format according to one of the following procedures: • 7.500 cw were plated on poly-D-lys coated 384 well microtiter plates (MTPs). 24 h later, medium was manually discarded and replaced with fresh medium containing 1 μg/mL of Doxycycline. Experiments were then carried out 48 h after seeding. • 10.000 cw were plated on poly-D-lys coated 384 well MTPs in medium containing 1 μg/mL of Doxycycline. Experiments were carried out 24 hrs later.
On the day of the experiment, medium was removed by plate overthrow and tapping on a paper towel. Cells were then incubated for 3-4 hrs at 37° C. with 10 μM coelenterazine dissolved in 2 mM Ca^2+ or Ca^2+-Free Tyrode's Buffer (20 μL). Cells were exposed to calcium control and/or ligand and the luminescence changes over a period of 1 minute (at 35.000 gain of sensitivity) were monitored using a FLIPR® Tetra screening system. For agonist evaluation, a single exposure protocol was applied (ligands 1º injection, 20 μL-2×), whereas for PAM evaluation a double injection protocol was applied as following: • 1° injection: ligands dose-response (20 μL-2×) • 2° injection: Reference agonist EC20 (20 μL-3×) • Data Analysis. FLIPR® Tetra measurements were analysed with Screenworks© software (Molecular Devices, Version 3.0.1.4) and data were exported as Maximum statistics of Absolute Response (RLU) calculated after compound injection. RLU is obtained applying “Subtract Bias on Sample n” (where n=Time point of compound injection). Mean and standard deviation values were calculated on the exported data with Excel software, and then values were used to create sigmoidal dose-response curves (variable slope) or histograms with GraphPad PRISM® software (Version 6). The obtained EC50/IC50 values were used to calculate EC50/[…] values according to the following formula: ECX=[(X/100−X)1/HillSlope]*EC50
Cell lines, Medium and Culture Conditions. The experiments were done using HEK-natClytin or HEK T-Rex/natClytin reporter cell lines that were generated by stable transfection of the photoprotein natClytin into HEK-293 or HEK-293 T-Rex (HEK T-Rex, Invitrogen) cell lines respectively.
For experimental conditions, cells were plated on poly-D-lys coated 384 well MTPs according to one of the following conditions: • 7.500 cw.

Like-named read-outs stand apart in the source and are kept apart here.

For `NCCCCNCCCN` [Spermidine], the EC50 was 1.3 mM; the “CaSR agonists and PAMs (mode of action on CaSR)” value (“CaSR agonists and PAMs” below) is listed as “Spermidine (agonist)”.

For `O.O.[Ca+2].[Cl-].[Cl-]` [Calcium (Ca^2+), Calcium chloride (dihydrate)], the “CaSR agonists and PAMs” value was “(agonist)”. Regarding Poly-L-Arginine, the “CaSR agonists and PAMs” value was “Poly-L-Arginine (agonist)”. Moreover, the “Agonist EC50” value (agonist mode, single injection, HEK T-Rex/natClytin-fCaSR clone K 5.1, MAX dose 60 μg/mL) was 4.6 mg/L. With `NCCCNCCCCNCCCN` [Spermine], the “CaSR agonists and PAMs” value is “Spermine (agonist)”. On to “Magnesium chloride (hexahydrate) [Magnesium (Mg^2+)]”, for which the “CaSR agonists and PAMs” value was “(agonist)”. Turning to `NCC1O[C@H](O[C@@H]2C(N)C[C@@H](N)C(O)C2O[C@@H]2O[C@H](CO)C(OC3O[C@@H](CN)C(O)C(O)[C@H]3N)C2O)C(N)C(O)[C@@H]1O` (some centres unmarked) [Neomycin], the EC50 was 10 mM; the “CaSR agonists and PAMs” value is “Neomycin (agonist)”.

Take Calindol: the “CaSR agonists and PAMs” value is “Calindol (PAM)”. Besides, where the note is “listed as calindol”, the “CaSR agonists and PAMs” value is listed as “activated CaSR as PAMs”. For the molecule `NC(CCC(=O)NC(CS)C(=O)NCC(=O)O)C(=O)O` [L-Glutathione, L-Glutathione (γ-Glu-Cys-Gly)], the “CaSR agonists and PAMs” value is listed as “L-Glutathione (agonist)”. Also, the EC50 (agonist mode, single injection, HEK T-Rex/natClytin-fCaSR clone K 5.1, photoprotein luminescence, tested up to the MAX dose in c1/c2, read-out: Agonist EC50) came out at 8.2 mM. On to `C[C@@H](NCCCc1cccc(C(F)(F)F)c1)c1cccc2ccccc12` [Cinacalcet], for which the EC50 came out at 0.001 mM; the “CaSR agonists and PAMs” value is listed as “Cinacalcet (PAM)”. Moreover, the “CaSR agonists and PAMs” value (listed as cinacalcet) was “activated CaSR as PAMs”. On to `NCCCCN` [Putrescine], for which the “CaSR agonists and PAMs” value is recorded as “Putrescine (not active)”.
